Assay results as given in patent US20260265259A1, “SUBSTITUTED 6-IMIDAZOPYRIDAZINE IL-17A MODULATORS AND USES THEREOF” (DICE ALPHA, INC., priority 2023, published 2026).

System: IL-17A/A
Test: IL-17A/A HEK-Blue cell assay
Format: cell-based
Details: HEK-Blue, 20 h, IL-17A/A inhibition, HEK-Blue IL-17A reporter cell line, IL17A/A 5 ng/mL, SEAP read at A630, read-out: AA IC50
How it was run: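 HEK 293 reporter cells expressing IL-17RA, IL-17RC and Act1, stimulated with 5 ng/mL IL17A/A or IL17A/F for 20 h alongside compound (10 μM to 27 pM, 0.1% DMSO). NFκB-driven SEAP in the medium read at A630 with Quanti-Blue; IC50 from 4-parameter fit.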

SMILES | IC50
CCn1nccc1C(=O)N[C@H](c1cn2nc(C[C@H]3C[C@@H](C(F)(F)F)CNC3=O)c(C3CCOCC3)cc2n1)C1CCC(F)(F)CC1 [Compound 21, N—((S)-(4,4-difluorocyclohexyl)(6-(((3R,5R)-2-oxo-5-(trifluoromethyl)piperidin-3-yl)methyl)-7-(tetrahydro-2H-pyran-4-yl)imidazo[1,2-b]pyridazin-2-yl)methyl)-1-ethyl-1H-pyrazole-5-carboxamide] | < 100 nM
CCn1nccc1C(=O)N[C@H](c1cn2nc(C[C@H]3C[C@@H](C(F)(F)F)CNC3=O)c(N3CCOCC3C)cc2n1)C1CCC(F)(F)CC1 (stereo partly drawn) [Compound 32] | 100 to 1000 nM
CCn1nccc1C(=O)N[C@H](c1cn2nc(C[C@H]3C[C@@H](C(F)(F)F)CNC3=O)c(C3CCOC3)cc2n1)[C@H]1CCCC(F)(F)C1 (stereo partly drawn) [Compound 67] | < 100 nM
CCn1nccc1C(=O)N[C@H](c1cn2nc(C[C@H]3C[C@@H](C(F)(F)F)CNC3=O)c(CNCC(F)(F)F)cc2n1)C1CCC(F)(F)CC1 [Compound 115, N—((S)-(4,4-difluorocyclohexyl)(6-(((3R,5R)-2-oxo-5-(trifluoromethyl)piperidin-3-yl)methyl)-7-(((2,2,2-trifluoroethyl)amino)methyl)imidazo[1,2-b]pyridazin-2-yl)methyl)-1-ethyl-1H-pyrazole-5-carboxamide] | < 100 nM

Now from value to molecule:

IC50 | SMILES
< 100 nM | CCn1nccc1C(=O)N[C@H](c1cn2nc(C[C@H]3C[C@@H](C(F)(F)F)CNC3=O)c(C3CCOC(C)(C)C3)cc2n1)C1CCC(F)(F)CC1 (stereo partly drawn) [Compound 87]
< 100 nM | CCn1nccc1C(=O)N[C@H](c1cn2nc(C[C@H]3C[C@@H](C(F)(F)F)CNC3=O)c(N3CCC(F)(F)CC3)cc2n1)C1CCC(F)(F)CC1 [Compound 19]
< 100 nM | O=C(N[C@H](c1cn2nc(CC3C[C@@H](C(F)(F)F)CNC3=O)c(N3CCOCC3)cc2n1)C1CCC(F)(F)CC1)c1nonc1C1CC1 (stereo partly drawn) [Compound 15]
< 100 nM | CC(C)n1nccc1C(=O)N[C@H](c1cn2nc(C[C@H]3C[C@@H](C(F)(F)F)CNC3=O)c(N3CCOCC3)cc2n1)[C@@H]1CCCC(F)(F)C1 [Compound 28]

Same assay, conditions: IL-17A/A inhibition, HEK-Blue IL-17A reporter cell line, IL17A/A 5 ng/mL, 20 hours, SEAP read at A630; read-out: AA IC50

IC50 | SMILES
< 100 nM | CCn1nccc1C(=O)N[C@H](c1cn2nc(C[C@H]3C[C@@H](C(F)(F)F)CNC3=O)c(C3CCOC3)cc2n1)[C@@H]1CCCC(F)(F)C1 (stereo partly drawn) [Compound 72]
